What follows are compounds tested on BALL-1 (assay: cytotoxicity against human BALL1 cells by MTT assay).
Format: functional, cell-based

Compared with `C\C=C(/C=C(C)/C=C/CC/C=C(\C)C(=O)[C@]12O[C@H]1C(C)(O)NC2=O)C(=O)OC` (some centres undefined) [EPOLACTAENE], `CCCCCCCCCCCC(=O)[C@]12O[C@H]1C(C)(O)NC2=O` (some centres undefined) is 2.3-fold lower in IC50: 3.82 µM for the first, 1.65 µM for the second.

Compared with `CCN(CC)c1ccc2cc(NC(=O)OCCCCCCCCCCCC(=O)[C@]34O[C@H]3C(C)(O)NC4=O)c(=O)oc2c1` (some centres undefined), `CC1(O)NC(=O)[C@@]2(C(=O)CCCCCCCCCCCNC(=O)CCCC[C@@H]3SC[C@@H]4NC(=O)N[C@@H]43)O[C@@H]12` (some centres undefined) is 31-fold higher in IC50: 1.56 µM for the first, 48.3 µM for the second. The first is the more potent here.

Reference: ChEMBL document CHEMBL1157191, “Syntheses and applications of fluorescent and biotinylated epolactaene derivatives: Epolactaene and its derivative induce disulfide formation” (Bioorg Med Chem, 2008)
